Tests used:
[1] = system: Erythrocyte; assay: Minimum hemolytic activity concentration against erythrocyte; type: cell-based; details: human erythrocyte, 37° C. 1 hour, O.D.540, 50% hemolysis
Experimental: Human blood was collected. The sample blood was then mixed with the equal amount of alsebar solution (glucose: 2.05 g; NaCl: 0.42 g; sodium citrate: 0.8 g; citric acid: 0.55 g; pH: 6.1). The mixture was then stored at a temperature of 4° C. Shortly before used for experiment, the alsebar stored blood was subjected to centrifugal separation. Thus, the supernatant liquid and the leukocyte layer on the erythrocyte were removed. To the erythrocyte was then added PBS in an amount of […] that of the erythrocyte to obtain a 50% erythrocyte. 10 μl of the 50% erythrocyte was then mixed with 990 μl of each of chemicals which had been diluted with PBS in amounts varying stepwise. The erythrocyte was acted upon by the chemical at a temperature of 37° C. for 1 hour. The mixture was then subjected to centrifugal separation. The supernatant liquid was collected for the measurement of the optical density at 540 nm (O.D.540). Separately, the foregoing procedure was followed except that no chemicals were used to prepare a 0% hemolytic control. The foregoing procedure was followed except that Milliq water was used instead of PBS to prepare a 100% hemolytic control. For the minimum hemolytic activity concentration of chemical, the minimum concentration at which the hemolytic concentration is […] was determined.

[2] = system: Escherichia coli K12 W 3110; assay: MIC by agar plate dilution method; type: cell-based; details: E. coli, 37° C. 24 hours
Experimental: (§1) MIC value was determined by an agar plate dilution method according to the Law of Japanese Society of Chemotherapy. In some detail, a bacteria solution in stationary state which had been adjusted with a nutrient broth such that the concentration of bacterial suspension reached 10^6 cell/ml was added to agar culture media containing chemical solutions having concentrations which vary in two stages where it was then allowed to stand at a temperature of 37° C. for 24 hours for culture. The bacteria solution was then examined to see if the proliferation of bacteria occurred. Thus, MIC was determined.
(§2) The following three kinds of bacteria were used as sample bacteria:
Escherichia coliK12 W 3110 (E. coli);

[3] = system: Candida albicans ATCC10231; assay: Minimum development inhibiting concentration (MIC) against fungi; type: cell-based; details: C. albicans; spore solution, 27° C. 1 week
Experimental: (§3) A sample fungus which had been pre-cultured was diluted with a wetting agent-containing sterilized water according to an ordinary broth dilution method to prepare a spore solution. 1 ml of the spore solution was then mixed with 1 ml of each of chemical solutions having concentrations which vary stepwise. The mixture was then cultured at a temperature of 27° C. in an incubator for 1 week. The culture was then examined for turbidity to see if the proliferation of fungus occurred. The minimum concentration at which no turbidity occurs was defined to be MIC.
(§4) Aspergillus niger IFO 6431 (A. niger) and Candida albicans ATCC10231 (C. albicans) were used as sample microorganisms.

[4] = system: Aspergillus niger IFO 6431; assay: as above; type: cell-based; details: A. niger; spore solution, 27° C. 1 week
Experimental: as §3, §4

[5] = system: Staphylococcus aureus IFO 12732; assay: MIC by agar plate dilution method; type: cell-based; details: S. aureus, 37° C. 24 hours
Experimental: as §1, §2
Staphylococcus aureus IFO 12732 (S. aureus)

[6] = system: Pseudomonas aeruginosa ATCC27583; assay: MIC by agar plate dilution method; type: cell-based; details: P. aeruginosa, 37° C. 24 hours
Experimental: as §1, §2
Pseudomonas aeruginosa ATCC27583 (P. auruginosa); and […]

[7] = system: rat; assay: Oral toxicity test on rat (LD50); type: in vivo
Experimental: The quaternary ammonium salt of the invention is a compound having an extremely high safety, i.e., LD50 (rat) of not smaller than 2,000 mg/kg in oral toxicity test on rat.
The sample 4BAMP-6C thus obtained was then determined for oral toxicity (LD50: rat). The results were greater than 2,000 mg/kg.

[8] = system: Escherichia coli K12 W 3110; assay: Minimum development inhibiting concentration (MIC) against bacteria, broth dilution method; type: cell-based; details: 37° C. 24 hours
Experimental: A bacteria solution in stationary state which had been adjusted with a nutrient broth according to an ordinary broth dilution method such that the concentration of bacterial suspension reached 10^6 cell/ml was added to chemical solutions having concentrations which vary stepwise where it was then allowed to stand at a temperature of 37° C. for 24 hours for culture. The bacteria solution was then examined to see if the proliferation of bacteria occurred. Thus, MIC was determined.
Escherichia coli K12 W 3110 was used as a sample bacterium. Compounds obtained in Examples 1 to 9 and benzalkonium chloride prepared in Comparative Example 1 were used as test samples.
The compounds obtained in Examples 10 to 19 and benzalkonium chloride were determined for MIC value against Escherichia coli K12 W 3110 in the same manner as in Test Example 3.

[9] = system: Bacillus substilis ATCC 6633; assay: Minimum bactericidal concentration (MBC) against bacteria; type: cell-based, Bacillus subtilis; details: contact 30° C. 30 minutes, culture 37° C. 24 hours
Experimental: (§5) A bacteria solution in the initial stage of logarithmic productive phase which had been adjusted with a nutrient broth according to an ordinary sterilized water dilution method such that the concentration of bacterial suspension reached 10^6 cell/ml was brought into contact with chemical solutions having concentrations which vary stepwise at a temperature of 30° C. for 30 minutes, and then transplanted to a nutrient broth where it was then allowed to stand at a temperature of 37° C. for 24 hours for culture. The nutrient broth was then examined to see if the proliferation of bacteria occurred. Thus, MBC was determined.
(§6) Five kinds of gram-negative bacteria and four kinds of gram-positive bacteria were used as sample bacteria.
(§7) BAMP-6 (Example 12), BAMD-6,8 (Example 13), BAMT-6 (Example 17) and benzalkonium chloride (Comparative Example 1) were determined for MBC value against 5 kinds of gram-negative bacteria and 4 kinds of gram-positive bacteria in the same manner as in Test Example 1.

[10] = system: Escherichia coli K12 OUT 8401; assay: as above; type: cell-based; details: contact 30° C. 30 minutes, culture 37° C. 24 hours
Experimental: as §5, §6, §7

[11] = system: Staphylococcus aureus IFO 12732; assay: as above; type: cell-based; details: contact 30° C. 30 minutes, culture 37° C. 24 hours
Experimental: as §5, §6, §7

[12] = system: Pseudomonas aeruginosa ATCC 27583; assay: as above; type: cell-based; details: contact 30° C. 30 minutes, culture 37° C. 24 hours
Experimental: as §5, §6, §7

[13] = system: Bacillus cereus IFO 3001; assay: as above; type: cell-based; details: contact 30° C. 30 minutes, culture 37° C. 24 hours
Experimental: as §5, §6, §7

[14] = system: Proteus rettgeri NIT 96; assay: as above; type: cell-based; details: contact 30° C. 30 minutes, culture 37° C. 24 hours
Experimental: as §5, §6, §7

[15] = system: Escherichia coli K12 W 3110; assay: as above; type: cell-based; details: contact 30° C. 30 minutes, culture 37° C. 24 hours
Experimental: as §5, §6, §7

[16] = system: Klebsiella pneumoniae ATCC 13883; assay: as above; type: cell-based; details: contact 30° C. 30 minutes, culture 37° C. 24 hours
Experimental: as §5, §6, §7

[17] = system: Bacillus subtilis IFO 3134; assay: as above; type: cell-based; details: contact 30° C. 30 minutes, culture 37° C. 24 hours
Experimental: as §5, §6, §7

Row | Substance | Minimum hemolytic activity concentration Erythrocyte [1] | MIC [2] [ppm] | MIC [3] [ppm] | MIC [4] [ppm] | MIC [5] [ppm] | MIC [6] [ppm] | oral toxicity LD50 [7] | MIC Escherichia coli K12 W 3110 [8] [ppm] | MBC [9] [ppm] | MBC [10] [ppm] | MBC [11] [ppm] | MBC [12] [ppm] | MBC [13] [ppm] | MBC [14] [ppm] | MBC [15] [ppm] | MBC [16] [ppm] | MBC [17] [ppm]
1 | 1,4-bis(N,N-dipentyl-N-methylammoniomethyl)phenylene dichloride [Example 4BAMP-5C] | 1,600 ppm | 16 | 8 | 16 | <2 | 4 |  |  |  |  |  |  |  |  |  |  | 
2 | 1,4-bis(N,N-dihexyl-N-methylammoniomethyl)phenylene di-p-toluenesulfonate [Example 4BAMP-6S] |  |  |  |  |  |  | greater than 2,000 mg/kg | 2 | <2 | 4 | <2 | 8 | 4 | <2 | 8 | <2 | <2
3 | 1,4-bis(N,N-dihexyl-N-methylammoniomethyl)-2,3,5,6-tetramethylphenylene dichloride [BAMD-6] | 400 ppm |  |  |  |  |  | greater than 2,000 mg/kg | 1 | <2 | <2 | <2 | 4 | <2 | <2 | 4 | <2 | <2

Reference: US6664224B2, “Quaternary ammonium salt and process for the preparation thereof” (priority 2000, dated 2003)
